Measurements reported in patent publication US9796741B2 (Achillion Pharmaceuticals, Inc., priority 2014, dated 2017).
Where two headings read alike, the source gives them in different places.

Biological target: Human factor D (Homo sapiens (Human), UniProt P00746)
Assay: Human Factor D Assay
Type: biochemical
Method in brief: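 Serum-purified factor D (80 nM final) preincubated 5 min at room temperature with compound in 50 mM Tris, 1M NaCl, pH 7.5. Z-L-Lys-SBzl and DTNB added at 100 μM each; OD405 followed kinetically over 30 min. IC50 by non-linear regression of % inhibition.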

[1] = human factor D 80 nM, substrate Z-L-Lys-SBzl, DTNB

Human factor D, sequence (P00746 26-253): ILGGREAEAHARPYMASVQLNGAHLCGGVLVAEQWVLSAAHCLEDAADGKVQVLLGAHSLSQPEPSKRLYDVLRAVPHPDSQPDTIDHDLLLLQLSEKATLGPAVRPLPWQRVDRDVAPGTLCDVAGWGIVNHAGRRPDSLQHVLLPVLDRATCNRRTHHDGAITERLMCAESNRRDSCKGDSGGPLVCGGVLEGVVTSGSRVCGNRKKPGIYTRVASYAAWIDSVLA

Compound | IC50 [1] [µM] | IC50 [µM]
CC(=O)c1cn(CC(=O)N2C[C@H](F)C[C@H]2C(=O)Nc2cncc(Br)n2)c2ccc(-c3ccnnc3)cc12 [Compound 127, (2S,4R)-1-(2-(3-acetyl-5-(pyridazin-4-yl)-1H-indol-1-yl)acetyl)-N-(6-bromopyrazin-2-yl)-4-fluoropyrrolidine-2-carboxamide] | < 1 | 
NC(=O)c1nn(CC(=O)N2C[C@H](F)C[C@H]2C(=O)Nc2cncc(Br)n2)c2ccc(-c3ccnnc3)cc12 [Compound 128, 1-(2-((2S,4R)-2-(6-bromopyrazin-2-ylcarbamoyl)-4-fluoropyrrolidin-1-yl)-2-oxoethyl)-5-(pyridazin-4-yl)-1H-indazole-3-carboxamide] | < 1 | 
NC(=O)c1nn(CC(=O)N2C[C@H](F)C[C@H]2C(=O)Nc2ccc3ccccc3c2)c2ccc(-c3ccnnc3)cc12 [Compound 131, 1-(2-((2S,4R)-4-fluoro-2-(naphthalen-2-ylcarbamoyl)pyrrolidin-1-yl)-2-oxoethyl)-5-(pyridazin-4-yl)-1H-indazole-3-carboxamide] | > 10 | 
CC(=O)c1cn(CC(=O)N2[C@@H]3C[C@@H]3C[C@H]2C(=O)Nc2cccc(-c3ccccc3Cl)c2F)c2ccc(-c3cnc(C)nc3)cc12 [Compound 133, (1R,3S,5R)-2-(2-(3-acetyl-5-(2-methylpyrimidin-5-yl)-1H-indol-1-yl)acetyl)-N-(2′-chloro-2-fluorobiphenyl-3-yl)-2-azabicyclo[3.1.0] hexane-3-carboxamide] | < 1 | 
CC(=O)c1cn(CC(=O)N2[C@@H]3C[C@@H]3C[C@H]2C(=O)NCc2cccc(Cl)c2F)c2ccc(-c3cnc(C)nc3)cc12 [Compound 134, (1R,3S,5R)-2-(2-(3-acetyl-5-(2-methylpyrimidin-5-yl)-1H-indol-1-yl)acetyl)-N-(3-chloro-2-fluorobenzyl)-2-azabicyclo[3.1.0] hexane-3-carboxamide] | < 1 | 
CC(=O)c1cn(CC(=O)N2C[C@H](F)C[C@H]2C(=O)NCc2cccc(Cl)c2F)c2ccc(-c3cnc(C)nc3)cc12 [Compound 135, (2S,4R)-1-(2-(3-acetyl-5-(2-methylpyrimidin-5-yl)-1H-indol-1-yl)acetyl)-N-(3-chloro-2-fluorobenzyl)-4-fluoropyrrolidine-2-carboxamide] | < 1 | 
COc1ncc(-c2ccc3c(c2)c(C(C)=O)cn3CC(=O)N2C[C@H](F)C[C@H]2C(=O)NCc2cccc(Cl)c2F)cn1 [Compound 136, (2S,4R)-1-(2-(3-acetyl-5-(2-methoxypyrimidin-5-yl)-1H-indol-1-yl)acetyl)-N-(3-chloro-2-fluorobenzyl)-4-fluoropyrrolidine-2-carboxamide] | < 1 | 
CC(=O)c1cn(CC(=O)N2C[C@H](F)C[C@H]2C(=O)Nc2cccc(Cl)n2)c2ccc(-c3cnc(C)nc3)cc12 [Compound 137, (2S,4R)-1-(2-(3-acetyl-5-(2-methylpyrimidin-5-yl)-1H-indol-1-yl)acetyl)-N-(6-chloropyridin-2-yl)-4-fluoropyrrolidine-2-carboxamide] | < 1 | 
CC(=O)Nc1ncc(-c2ccc3c(c2)c(C(C)=O)cn3CC(=O)N2C[C@H](F)C[C@H]2C(=O)Nc2cccc(-c3ccccc3Cl)c2F)cn1 [Compound 138, (2S,4R)-1-(2-(5-(2-acetamidopyrimidin-5-yl)-3-acetyl-1H-indol-1-yl)acetyl)-N-(2′-chloro-2-fluorobiphenyl-3-yl)-4-fluoropyrrolidine-2-carboxamide] | < 1 | 
NC(=O)c1nn(CC(=O)N2C[C@H](F)C[C@H]2C(=O)NCc2ccccn2)c2ccc(-c3ccnnc3)cc12 [Compound 139, 1-(2-((2S,4R)-4-fluoro-2-(pyridin-2-ylmethylcarbamoyl)pyrrolidin-1-yl)-2-oxoethyl)-5-(pyridazin-4-yl)-1H-indazole-3-carboxamide] |  | 1 to 10
CC(=O)c1cn(CC(=O)N2C[C@H](F)C[C@H]2C(=O)NC2CCCN(c3cnn(C)c3)C2)c2ccc(-c3ccnnc3)cc12 (stereo partly drawn) [Compound 140, (2S,4R)-1-(2-(3-acetyl-5-(pyridazin-4-yl)-1H-indol-1-yl)acetyl)-4-fluoro-N-(1-(1-methyl-1H-pyrazol-4-yl)piperidin-3-yl)pyrrolidine-2-carboxamide] |  | 1 to 10
Cn1cc(N2CCCC(NC(=O)[C@@H]3C[C@@H](F)CN3C(=O)Cn3nc(C(N)=O)c4cc(-c5ccnnc5)ccc43)C2)cn1 (stereo partly drawn) [Compound 141, 1-(2-((2S,4R)-4-fluoro-2-(1-(1-methyl-1H-pyrazol-4-yl)piperidin-3-ylcarbamoyl)pyrrolidin-1-yl)-2-oxoethyl)-5-(pyridazin-4-yl)-1H-indazole-3-carboxamide] | > 10 | 
CC(=O)c1cn(CC(=O)N2C[C@H](F)C[C@H]2C(=O)N[C@@H]2CCC[C@H]2O)c2ccc(-c3ccnnc3)cc12 [Compound 143, (2S,4R)-1-(2-(3-acetyl-5-(pyridazin-4-yl)-1H-indol-1-yl)acetyl)-4-fluoro-N-((1R,2R)-2-hydroxycyclopentyl) pyrrolidine-2-carboxamide] | > 10 | 
CC(=O)c1cn(CC(=O)N2C[C@H](F)C[C@H]2C(=O)Nc2cccc(O)n2)c2ccc(-c3ccnnc3)cc12 [Compound 144, (2S,4R)-1-(2-(3-acetyl-5-(pyridazin-4-yl)-1H-indol-1-yl)acetyl)-4-fluoro-N-(6-hydroxypyridin-2-yl)pyrrolidine-2-carboxamide] | > 10 | 
NC(=O)c1nn(CC(=O)N2C[C@H](F)C[C@H]2C(=O)N[C@@H]2CCC[C@H]2O)c2ccc(-c3ccnnc3)cc12 [Compound 145, 1-(2-((2S,4R)-4-fluoro-2-((1R,2R)-2-hydroxycyclopentyl-carbamoyl)pyrrolidin-1-yl)-2-oxoethyl)-5-(pyridazin-4-yl)-1H-indazole-3-carboxamide] | > 10 | 
NC(=O)c1nn(CC(=O)N2C[C@H](F)C[C@H]2C(=O)Nc2nc(-c3cccc(Cl)c3)ns2)c2ccc(-c3ccnnc3)cc12 [Compound 146, 1-(2-((2S,4R)-2-(3-(3-chlorophenyl)-1,2,4-thiadiazol-5-ylcarbamoyl)-4-fluoropyrrolidin-l-yl)-2-oxoethyl)-5-(pyridazin-4-yl)-1H-indazole-3-carboxamide] | > 10 | 
CC(=O)c1cn(CC(=O)N2C[C@H](F)C[C@H]2C(=O)Nc2nc(-c3cccc(Cl)c3)ns2)c2ccc(-c3ccnnc3)cc12 [Compound 147, (2S,4R)-1-(2-(3-acetyl-5-(pyridazin-4-yl)-1H-indol-1-yl)acetyl)-N-(3-(3-chlorophenyl)-1,2,4-thiadiazol-5-yl)-4-fluoropyrrolidine-2-carboxamide] | > 10 | 
CC(=O)c1cn(CC(=O)N2C[C@H](F)C[C@H]2C(=O)Nc2cccc(-c3cc(F)c(F)cc3Cl)c2F)c2ccc(-c3cnc(C)nc3)cc12 [Compound 150, (2S,4R)-1-(2-(3-acetyl-5-(2-methylpyrimidin-5-yl)-1H-indol-1-yl)acetyl)-N-(2′-chloro-2,4′,5′-trifluorobiphenyl-3-yl)-4-fluoropyrrolidine-2-carboxamide] | < 1 | 
CC(=O)c1cn(CC(=O)N2C[C@H](F)C[C@H]2C(=O)Nc2cccc(-c3ccccc3Cl)c2F)c2ccc(-c3ccc(C)nc3)cc12 [Compound 151, (2S,4R)-1-(2-(3-acetyl-5-(6-methylpyridin-3-yl)-1H-indol-1-yl)acetyl)-N-(2′-chloro-2-fluorobiphenyl-3-yl)-4-fluoropyrrolidine-2-carboxamide] | < 1 | 
CC1Oc2cccc(NC(=O)[C@@H]3C[C@@H](F)CN3C(=O)Cn3nc(C(N)=O)c4cc(-c5ccnnc5)ccc43)c2NC1=O (stereo partly drawn) [Compound 152, 1-(2-((2S,4R)-4-fluoro-2-(2-methyl-3-oxo-3,4-dihydro-2H-benzo[b][1,4]oxazin-5-ylcarbamoyl)pyrrolidin-1-yl)-2-oxoethyl)-5-(pyridazin-4-yl)-1H-indazole-3-carboxamide] | > 10 | 
CC(=O)c1cn(CC(=O)N2C[C@H](F)C[C@H]2C(=O)Nc2cccc3c2NC(=O)C(C)O3)c2ccc(-c3ccnnc3)cc12 (stereo partly drawn) [Compound 153, (2S,4R)-1-(2-(3-acetyl-5-(pyridazin-4-yl)-1H-indol-1-yl)acetyl)-4-fluoro-N-(2-methyl-3-oxo-3,4-dihydro-2H-benzo[b][1,4]oxazin-5-yl)pyrrolidine-2-carboxamide] | > 10 | 
NC(=O)c1nn(CC(=O)N2C[C@H](F)C[C@H]2C(=O)Nc2cc(O)ccn2)c2ccc(-c3ccnnc3)cc12 [Compound 154, 1-(2-((2S,4R)-4-fluoro-2-(4-hydroxypyridin-2-ylcarbamoyl)pyrrolidin-l-yl)-2-oxoethyl)-5-(pyridazin-4-yl)-1H-indazole-3-carboxamide] | > 10 | 
Cn1ccc(N2CCC(NC(=O)[C@@H]3C[C@@H](F)CN3C(=O)Cn3nc(C(N)=O)c4cc(-c5ccnnc5)ccc43)C2=O)n1 (stereo partly drawn) [Compound 155, 1-(2-((2S,4R)-4-fluoro-2-(1-(1-methyl-1H-pyrazol-3-yl)-2-oxopyrrolidin-3-ylcarbamoyl)pyrrolidin-1-yl)-2-oxoethyl)-5-(pyridazin-4-yl)-1H-indazole-3-carboxamide] | > 10 | 
CC(=O)c1cn(CC(=O)N2C[C@H](F)C[C@H]2C(=O)Nc2c[nH]nc2-c2ccc(Cl)cc2Cl)c2ccc(-c3ccnnc3)cc12 [Compound 156, (2S,4R)-1-(2-(3-acetyl-5-(pyridazin-4-yl)-1H-indol-1-yl)acetyl)-N-(3-(2,4-dichlorophenyl)-1H-pyrazol-4-yl)-4-fluoropyrrolidine-2-carboxamide] | > 10 | 
NC(=O)c1nn(CC(=O)N2C[C@H](F)C[C@H]2C(=O)NCc2ccncc2)c2ccc(-c3ccnnc3)cc12 [Compound 157, 1-(2-((2S,4R)-4-fluoro-2-(pyridin-4-ylmethylcarbamoyl)pyrrolidin-1-yl)-2-oxoethyl)-5-(pyridazin-4-yl)-1H-indazole-3-carboxamide] | > 10 | 
Cc1cc(NC(=O)[C@@H]2C[C@@H](F)CN2C(=O)Cn2nc(C(N)=O)c3cc(-c4ccnnc4)ccc32)n(-c2ccccc2F)n1 [Compound 158, 1-(2-((2S,4R)-4-fluoro-2-(1-(2-fluorophenyl)-3-methyl-1H-pyrazol-5-ylcarbamoyl)pyrrolidin-1-yl)-2-oxoethyl)-5-(pyridazin-4-yl)-1H-indazole-3-carboxamide] | > 10 | 
